# Patent publication US11033538B2, “Dosing regimens for the treatment of lysosomal storage diseases using pharmacological chaperones” (Amicus Therapeutics, Inc., priority 2007, dated 2021)
# Positions count from the first letter of the chain named. Where two headings read alike, the source gives them in different places.
# Key:
# [1] = Clinical safety and tolerability of 1-Deoxynorjirimycin, single and repeat doses; type: in vivo, human
# rats [2] = conditions: rat, in vivo
# in vivo = conditions: plasma
# [3] = Pharmacokinetics of 1-Deoxynorjirimycin; conditions: is believed
# monkeys [4] = conditions: monkey, in vivo
# monkeys [5] = assay: Nonclinical toxicology studies of IFG, monkeys; type: in vivo
# Source text: (§1) In the lysosome, when the pharmacological chaperone dissociates from the enzyme, the enzyme can perform its normal function, which is to catalyze the breakdown of glucosylceramide (GlcCer), the GCase substrate.
# rats [6] = assay: Nonclinical toxicology studies of IFG, rats; type: in vivo
# Source text: as §1
# [7] = Phase 1 multiple-dose study of IFG in healthy subjects, plasma pharmacokinetics; type: in vivo, human; conditions: for Cmax / half-life / Tmax: human, plasma
# Method: (§2) Blood samples were collected for pharmacokinetic analysis before the initial drug administration on Day 1, before the 5th, 6th and 7th doses (on Days 5, 6 and 7) (for Cmin determination), and at the following times after the 1st (Day 1) and 7th (Day 7) doses: 0.5, 1, 1.5, 2, 3, 4, 5, 6, 8, 10, 12, 15, 18, and 24 hours. […] In addition, blood samples were collected for pharmacodynamic measurements, i.e., analysis of WBC GCase levels, before dosing on Day 1, Day 3, Day 5, and Day 7, and at return visits on Day 9, Day 14 and Day 21.
# N370S GCase = target: T1, N370S GCase (Homo sapiens, UniProt P04062, N409S); assay: Expected N370S GCase accumulation parameters estimated from wild-type PK/PD
# T1 sequence (P04062 40-536 N409S): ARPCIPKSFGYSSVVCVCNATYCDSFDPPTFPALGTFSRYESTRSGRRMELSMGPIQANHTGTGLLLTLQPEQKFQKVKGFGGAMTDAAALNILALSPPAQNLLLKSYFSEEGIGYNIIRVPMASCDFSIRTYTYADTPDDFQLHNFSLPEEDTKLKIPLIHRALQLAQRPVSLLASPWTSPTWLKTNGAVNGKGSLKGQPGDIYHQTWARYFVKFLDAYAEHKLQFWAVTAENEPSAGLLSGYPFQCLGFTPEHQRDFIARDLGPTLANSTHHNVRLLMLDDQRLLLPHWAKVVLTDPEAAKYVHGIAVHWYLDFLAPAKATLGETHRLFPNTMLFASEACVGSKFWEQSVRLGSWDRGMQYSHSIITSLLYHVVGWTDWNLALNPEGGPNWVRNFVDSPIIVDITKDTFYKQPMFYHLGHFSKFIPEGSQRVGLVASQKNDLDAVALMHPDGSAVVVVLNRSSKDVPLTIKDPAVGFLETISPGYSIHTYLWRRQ
# Source text: For example, the most prevalent mutation in Gaucher disease is N370S. […] Accordingly, the rate of N370S turnover and the dose that will yield the maximum rate of GCase accumulation, can be estimated based on the differences in PK and PD parameters as compared with the wild-type enzyme: […]
# GCase [8] = assay: IFG in a mouse model of GD; type: in vivo
# Source text: as §1
# GCase [9] = assay: GCase levels and trafficking in vitro with IFG (fibroblasts of GD patients); type: cell-based, human
# Source text: as §1
# GCase [10] = target: T2, GCase (Homo sapiens, UniProt P04062); assay: WBC GCase levels in healthy subjects receiving IFG (Phase 1 multiple-dose study); type: in vivo
# T2 construct: endogenous in cells; host or cells: white blood cells of healthy subjects; healthy human skin fibroblasts
# T2 sequence (P04062 40-536): T1 sequence (P04062 40-536 N409S) with S370N
# Method: as §2
# [11] = Example 10, pharmacokinetic/tissue distribution of isofagomine in rats; type: in vivo
# Method: A single dose of 600 mg/kg of isofagomine was administered to rats via PO gavage. The concentration of isofagomine (μM) in plasma, liver, spleen and brain tissue was ascertained at regular time intervals at dosing (t=0) through 48 hours after dosing.
# GCase [12] = assay: GCase activity in Gaucher patient-derived fibroblasts, lymphoblasts and macrophages after IFG for 5 days; type: cell-based, human; conditions: lymphoblast and macrophages
# Source text: FIGS. 4A, 4B, and 4C. […] FIG. 4A depicts GCase activity in fibroblasts; FIG. 4B depicts GCase activity in lymphoblasts; and FIG. 4C depicts GCase activity in macrophages.
smiles,measurement,setting,value
"OC[C@H]1NC[C@H](O)[C@@H](O)[C@@H]1O [1-Deoxynorjirimycin, (2R,3R,4R,5S)-2-(hydroxymethyl) piperidine-3,4,5-triol]",repeat doses (safe and well tolerated),[1]; for 2 weeks,up to 2 grams per day
same,severity of adverse events,[1]; patients receiving drug,mild or moderate in severity
same,single doses appearing safe and well tolerated,[1]; single doses,up to 600 mg
same,tolerability in short-term safety studies,rats [2],well tolerated
same,half-life,in vivo,4 to 8 h
same,oral bioavailability,[3],high oral bioavailability
same,tolerability in short-term safety studies,monkeys [4],well tolerated
"OC[C@H]1CNC[C@@H](O)[C@@H]1O [IFG, (2R,3R,4R)-5-(hydroxymethyl)-piperidine-3,4-diol]",safety and tolerability of repeated dosing,monkeys [5],generally safe and well tolerated
same,safety and tolerability of repeated dosing,rats [6],generally safe and well tolerated
same,pharmacokinetic behavior,"[7]; after 7 days of oral administration, 25, 75 or 225 mg daily",linear with dose
same,Cmax,"[7]; oral, 25 mg",310 nM
same,Cmax,"[7]; oral, 150 mg",1700 nM
same,half-life,"[7]; oral, healthy subjects, multiple-dose study, SEM: 2 hr., read-out: plasma elimination half-life (converted)",~14 h
same,half-life,"[7]; oral, read-out: Half-life (converted)",14 h
same,Tmax,"[7]; oral, read-out: Tmax",3 h
same,Tmax,"[7]; healthy subjects, multiple-dose study, 7 days oral, SEM: 0.6 hr., read-out: Mean plasma levels (Tmax) peaked",~3.4 h
same,Daily dose that yields max rate of accumulation during Initial Enzyme Build-Up phase,N370S GCase,≤150 to 300 mg
same,Max. rate of enzyme accumulation,N370S GCase,~0.35 Units/day
same,Max. rate of enzyme loss,N370S GCase,~−0.17 Units/day
same,plasma levels of chitinase and IgG,GCase [8],reduces plasma levels of chitinase and immunoglobulin G (IgG)
same,tissue GCase activity,GCase [8],increases tissue GCase activity
same,GCase trafficking to the lysosome,GCase [9]; fibroblasts of GD patients,increases GCase trafficking to the lysosome in fibroblasts of GD patients
same,GCase total cellular enzyme levels,GCase [9]; in vitro,increases GCase total cellular enzyme levels in vitro
same,Daily dose that yields max rate of accumulation during Initial Enzyme Build-Up phase,GCase [10]; Wild-type,≤75 mg
same,Max. rate of enzyme loss,GCase [10]; Wild-type,~−3.5 Units/day
same,Max. rate of enzyme accumulation,"GCase [10]; Wild-type, 1 unit = 1 nmole of 4-MU liberated per mg of total protein per hour",~7 Units/day
same,lowest daily dose that achieved the maximum rate of GCase accumulation over 7 days,GCase [10]; healthy subjects,about 75 mg
same,maximum increase in GCase enzyme level in white blood cells,"GCase [10]; healthy subjects, 7-day treatment",approximately 3.5 fold above baseline
same,time after which levels fall below the GCASE Ki value,"[11]; liver and plasma, single 600 mg/kg PO",48 h
same,time for all tissues to attain levels exceeding the GCase enhancement EC50,"[11]; single 600 mg/kg PO gavage, plasma, liver, spleen, brain",≤ 15 min
same,clearance from tissue,[11]; spleen and brain tissue,slower clearance
same,IFG concentration range at which maximum chaperoning (Emax) occurs,GCase [12],10 to 100 µM
